Data from ChEMBL document CHEMBL4251547, “The discovery of a pan-genotypic, primer grip inhibitor of HCV NS5B polymerase” (Medchemcomm, 2017).

Assays:
[1] = Cmax in rat at 2 mg/kg, iv; format: ADME, organism-based; design: dose 2 mg/kg, route intravenous; conditions: in vivo
[2] = Cmax in rat at 6 mg/kg, po; format: ADME, organism-based; design: dose 6 mg/kg, route oral; conditions: in vivo
[3] = Plasma concentration in rat at 6 mg/kg, po after 24 hrs; format: ADME, organism-based
Rattus norvegicus = experiment: (§1) Oral bioavailability in rat at 6 mg/kg; format: ADME, organism-based; conditions: in vivo
[4] = Drug uptake in rat liver at 6 mg/kg, po after 24 hrs; format: ADME, organism-based; conditions: read-out: Drug uptake
[5] = AUC in rat at 6 mg/kg, po; format: ADME, organism-based; conditions: in vivo
[6] = as §1; format: ADME, organism-based; conditions: in vivo
[7] = Volume of distribution at steady state in rat at 2 mg/kg, iv or 6 mg/kg, po; format: ADME, organism-based; conditions: in vivo, read-out: Vdss
[8] = Volume of distribution at steady state in dog at 1 mg/kg, iv or 3 mg/kg, po; format: ADME, organism-based, Canis lupus familiaris; conditions: in vivo, read-out: Vdss
Canis familiaris [9] = experiment: AUC in dog at 3 mg/kg, po; format: ADME, organism-based, Canis lupus familiaris; conditions: in vivo
Canis familiaris [10] = experiment: Oral bioavailability in dog at 3 mg/kg; format: ADME, organism-based, Canis lupus familiaris; conditions: in vivo
[11] = Volume of distribution at steady state in cynomolgus monkey at 1 mg/kg, iv or 3 mg/kg, po; format: ADME, organism-based, Macaca fascicularis; conditions: in vivo, read-out: Vdss
[12] = AUC in cynomolgus monkey at 3 mg/kg, po; format: ADME, organism-based, Macaca fascicularis; conditions: in vivo
[13] = Oral bioavailability in cynomolgus monkey at 3 mg/kg; format: ADME, organism-based, Macaca fascicularis; conditions: in vivo
[14] = Drug uptake in rat liver at 6 mg/kg, po after 48 hrs; format: ADME, organism-based; conditions: read-out: Drug uptake

Structure (SMILES)	Cmax [1] [nM]	Cmax [2] [nM]	concentration at 24 h [3] [nM]	F (Rattus norvegicus) [%]	concentration at 24 h [4] [nM]	AUC [5] [µM·h]	bioavailability [6] [%]	Vd [7] [L/kg]	Vd [8] [L/kg]	AUC (Canis familiaris [9]) [µM·h]	F (Canis familiaris [10]) [%]	Vd [11] [L/kg]	AUC [12] [µM·h]	bioavailability [13] [%]	concentration at 48 h [14] [nM]
CNC(=O)c1c(-c2ccc(F)cc2)oc2nc(NCC(F)(F)F)c(-c3cccc(C(=O)NC(C)(C)c4ncon4)c3)cc12	2500	600	39	31	–	–	–	–	–	–	–	–	–	–	–
CCNc1nc2oc(-c3ccc(F)cc3)c(C(=O)NC)c2cc1-c1cccc(C(=O)NC(C)(C)C)c1	1700	600	560	–	1600	18	64	–	–	–	–	–	–	–	–
CNC(=O)c1c(-c2ccc(F)cc2)oc2nc(CCC(F)(F)F)c(-c3cccc(C(=O)NC(C)(C)c4ncon4)c3)cc12	1700	1100	150	–	–	0.15 to 13	58	5.6	3.3	25	85	2.8	8.3	61	–
CNC(=O)c1c(-c2ccc(F)cc2)oc2nc(CCC(F)(F)F)c(-c3cccc(C(=O)NC45CC(C4)C5)c3)cc12	3200	900	160	–	900	10	44	–	–	–	–	–	–	–	820
